These are literature values, as cited in patent publication US11219614B2, “Combination cancer therapy with pentaaza macrocyclic ring complex and ascorbate compound” (Galera Labs, LLC, priority 2016, dated 2022).

For data set [1] the following is noted: pH 7, absence of catalytic metals; cited from earlier work.
Data set [2] concerns experimental model of colitis. The conditions noted are these: rats; cited from earlier work.
Data set [3] deals with lethal total body irradiation. The conditions noted are these: adult mice; cited from earlier work.
The test system of data set [4] is collagen-induced arthritis. To be noted: rat; cited from earlier work.
The subject of a further data set is inflammation. The conditions noted are these: rat model; cited from earlier work.
Data set [5] has as its system radiation-induced oral mucositis. The conditions noted are these: hamster, acute radiation-induced oral mucositis; cited from earlier work.

For the compound `O=C1O[C@H]([C@@H](O)CO)C(O)=C1O` [ascorbic acid, (5R)-[(1S)-1,2-Dihydroxyethyl]-3,4-dihydroxyfuran-2(5H)-one], the stability of solution result in data set [1] is listed as “stable at pH 7”.
`[Cl-].[Cl-].[Mn+2].c1cc2nc(c1)CN[C@@H]1CCCC[C@H]1NCCN[C@@H]1CCCC[C@H]1NC2` [GC4403]: the “injury to the colon” value in data set [2] is given as “very significantly reduce the injury to the colon”. Further, the radiation damage result in data set [3] and in data set [5] was “attenuate the radiation damage” each time. Further, the joint disease entry in data set [4] is recorded as “prevent joint disease”. For the same compound, in the data set with inflammation, the inflammation entry is on record as “inhibit inflammation”.
